Reference: patent publication US20130266663A1, “SOX9 INHIBITORS” (priority 2010, published 2013)

How the values were obtained:
Format in all cases: cell-based, rat
SOX9 = SOX9 luciferase reporter assay in transfected astrocytes; conditions: for concentration at which the decrease in luciferase reporter activity is optimized / maximal / luciferase reporter activity (SOX9 activity): cultured rat astrocytes; for concentration at which the decrease in luciferase reporter activity is optimized / maximal / luciferase reporter activity (SOX9 activity) / reduction of Sox9 activity as indicated by luciferase expression: 24 h treatment; for luciferase reporter activity (SOX9 activity): various concentrations (FIG. 5); for inhibition of SOX9 activity (luciferase assay): 24 h; for reduction of Sox9 activity as indicated by luciferase expression: concentration not stated (FIG. 5)
Excerpt: Cultures early after plating bear characteristics of immature and reactive astroctyes associated with acute damage. In this assay, primary astrocytes are transfected with a SOX9 reporter construct that consists of 4 repeats of the SOX9 binding site coupled to the mouse Col2a1 minimal promoter cloned upstream of a luciferase gene in the plasmid pGL4, as previously described in WO 2008/049226. After normalization for transfection efficiency, SOX9 activity can be monitored in transfected astrocytes by luciferase activity. Cells transfected with the SOX9 reporter construct were cultured in the presence and absence of potential inhibitors for 24 hours at which time the cells were lysed and luciferase levels measured. Compounds that reduced the levels of luciferase activity relative to control wells were considered as positive “hits”. In a secondary screen, false positives that cause a reduction in luciferase activity due to effects on cell viability, were eliminated using a cell viability assay (CellTiter-Flour—Promega). Subsequent to secondary screening, the “hits” were evaluated for their affect on SOX9 target gene expression by Q-PCR studies in primary astrocytes.
The utility of calmodulin antagonists (inhibitor) to decrease SOX9 target gene expression was evaluated in cultured rat astrocytes transfected with pGL4.1 4×48 Col2a1 prepared as described in Example 1. This plasmid contains 4-48 bp SOX9-binding sites from the Col2A1 enhancer which promote luciferase reporter gene expression in cells where SOX9 is active i.e. in the nucleus. The day after transfection, cells were treated for 24 h with inhibitor in concentrations as described below and in FIG. 5 before the luciferase assay was performed.
In this example, the potential of compounds that modulate calcium channels to modulate SOX9 activity is tested. The compounds were evaluated in cultured rat astrocytes transfected with pGL4.1 4×48 Col2a1. The day after transfection, cells were treated for 24 h with selected inhibitors before the luciferase assay was performed.
Antagonists to TRPV4 cation channel were tested to determine their ability to decrease the activity of SOX9 in astrocytes. The effect of TRPV4 antagonists on SOX9 function was evaluated in cultured rat astrocytes transfected with pGL4.1 4×48 Col2a1. The day after transfection, cells were treated for 24 h with 2-APB (100 μM) or ruthenium red (10 μM) before the luciferase assay was performed. […] With respect to SOX9 target genes, Q-PCR analysis of aged primary astrocyte cultures was performed to determine the impact of the TRPV4 antagonists on SOX9. […] Collagen IV is a significant scarring extracellular matrix produced by astrocytes and contributing to the inhibitory properties of the glial scar.

SOX9 target genes = test: Q-PCR of SOX9 target gene expression in aged primary astrocyte cultures; design: reduction of XT-1 expression / reduction of HAPLN1 expression / reduction of aggrecan expression / reduction of Col2a expression / reduction of Col4a expression: concentration or dose not given beside the values
Excerpt: Another approach to modulating the capacity of calmodulin to transport SOX9 into the nucleus is via competitive inhibition of calmodulin binding. To that effect, a novel peptide (SOX-CAL) was generated to specifically block the calmodulin SOX9 binding site. The SOX-CAL peptide sequence, […] (SEQ ID NO.8), corresponds with the calmodulin binding sequence in SOX9. To ensure the peptide's entry into the cell, it was synthesized fused to the protein transduction domain of the HIV-1 Tat protein. […] This analysis was performed in contrast to the control FLAG-TAT peptide.
Antagonists to TRPV4 cation channel were tested to determine their ability to decrease the activity of SOX9 in astrocytes. The effect of TRPV4 antagonists on SOX9 function was evaluated in cultured rat astrocytes transfected with pGL4.1 4×48 Col2a1. The day after transfection, cells were treated for 24 h with 2-APB (100 μM) or ruthenium red (10 μM) before the luciferase assay was performed. The broad-spectrum transient receptor potential (TRP) channel antagonist 2-APB inhibited SOX9 activity by ˜70%, while the vanniloid subfamily-specific TRP antagonist ruthenium red inhibited SOX9 activity by ˜25%. With respect to SOX9 target genes, Q-PCR analysis of aged primary astrocyte cultures was performed to determine the impact of the TRPV4 antagonists on SOX9. Treatment with ruthenium red specifically reduces aggrecan and Col4a expression by 40% and 50%, respectively (FIG. 6B), while 2-APB reduces XT-1, HAPLN1, aggrecan, Col2a, and Col4a by 50%, 70%, 80%, 50%, and 60% respectively (FIG. 6B, C), in rat primary astrocytes after a 48 hour exposure (n=3). […] Based on the role that the TRP channels serve in modulating calcium levels, and therefore calmodulin activity, the effect of the TRP channel blockers on SOX9 activity appears to be indirect.

Collagen IV = test: Western blotting of astrocyte culture protein extract probed with anti-collagen IV; conditions: Cal-TAT treated vs control cultures
[1] = rat primary astrocytes, 48 hour exposure, n=3
[2] = primary astrocyte cultures, in contrast to control FLAG-TAT peptide (FIG. 7C)

NCCCCCCNS(=O)(=O)c1cccc2ccccc12 [W5] was tested. Which “concentration at which the decrease in luciferase reporter activity is optimized / maximal” value (SOX9) did it give?
The value was 50 µM.

And the “luciferase reporter activity (SOX9 activity)” value (SOX9)?
The value was “does dependent decreases in reporter activity”.

With OCCN1CCN(CCCN2c3ccccc3Sc3ccc(C(F)(F)F)cc32)CC1 [Fluphenazine, fluphenazine] as the compound, how does the “luciferase reporter activity (SOX9 activity)” value (SOX9) read?
Its value is “dose dependent decrease in reporter activity”.

N.N.N.N.N.N.N.N.N.N.N.N.N.N.[Cl-].[Cl-].[Cl-].[Cl-].[Cl-].[Cl-].[O-2].[O-2].[Ru+3].[Ru+3].[Ru+4] [ruthenium red] was tested. Which “reduction of Col4a expression” value (SOX9 target genes; [1]) did it give?
The value was 50%.

What about the “reduction of aggrecan expression” value (SOX9 target genes; [1]) of the same compound?
The value was 40%.

And the “inhibition of SOX9 activity (luciferase assay)” value (SOX9; 10 μM)?
The value was roughly 25%.

What about the “reduction of Sox9 activity as indicated by luciferase expression” value (“reduction of Sox9 activity as indicated” for short) (SOX9) of the same compound?
The value was “about 25%”.

And the “luciferase reporter activity (SOX9 activity)” value (SOX9)?
Its value is “significantly reduce luciferase production”.

For RRPMNAFMVWAQAARRK [SOX-CAL peptide], which “SOX9 target genes expression” value (SOX9 target genes; longer treatments (1 week)) is on record?
The value was “even more profound reductions”.

What does the source list for “Cal-TAT: SOX-CAL peptide fused to the HIV-1 Tat transduction domain, one N-/C-terminal configuration (KRPMNAFMVWAQAARRKYGRKKRRQRRR)”?
expression of C4ST (SOX9 target genes; 10 uM peptide, 48 hours): significantly reduced; expression of XT1 (SOX9 target genes; 10 uM peptide, 48 hours): significantly reduced; Collagen 2A expression (SOX9 target genes; [2]): significant reduction; GFAP expression (SOX9 target genes; [2]): significant reduction; XT-1 expression (SOX9 target genes; [2]): significant reduction; aggrecan expression (SOX9 target genes; [2]): significant reduction; brevican expression (SOX9 target genes; [2]): significant reduction; level of type IV collagen (Western blot) (Collagen IV): reduced level of type IV collagen

For “TAT-Cal: SOX-CAL peptide fused to the HIV-1 Tat transduction domain, other N-/C-terminal configuration (YGRKKRRQRRRKRPMNAFMVWAQAARRK)”, which “expression of C4ST” value (SOX9 target genes; 10 uM peptide, 48 hours) is on record?
The value was “significantly reduced”.

And the “expression of Sox9” value (SOX9 target genes; 10 uM peptide, 48 hours)?
The value was “increased”.

And the “expression of XT1” value (SOX9 target genes; 10 uM peptide, 48 hours)?
Its value is “significantly reduced”.

Clc1ccc(C(c2ccc(Cl)cc2)n2cc[n+](CC(OCc3ccc(Cl)cc3Cl)c3ccc(Cl)cc3Cl)c2)cc1 (stereo not drawn) [Calmidazolium, calmidazolium] was tested. Which “reduction of Sox9 activity as indicated” value (SOX9) did it give?
The value was “approximately 20%”.

COc1ccc2cc1Oc1ccc(cc1)C[C@H]1c3cc(c(OC)cc3CCN1C)Oc1c(OC)c(OC)cc3c1[C@H](C2)N(C)CC3 [Tetrandine, Tetrandrine] was tested. Which “reduction of Sox9 activity as indicated” value (SOX9) did it give?
The value was “approximately 20%”.

NCCCCCCNS(=O)(=O)c1cccc2c(Cl)cccc12 [W7] was tested. Which “concentration at which the decrease in luciferase reporter activity is optimized / maximal” value (SOX9) did it give?
Its value is 50 µM.

And the “luciferase reporter activity (SOX9 activity)” value (SOX9)?
The value was “does dependent decreases in reporter activity”.

Which “reduction of Col2a expression” value (SOX9 target genes; [1]) does the source give for NCCOB(c1ccccc1)c1ccccc1 [2-APB] here?
The value was 50%.

And the “reduction of Col4a expression” value (SOX9 target genes; [1])?
The value was 60%.

What about the “reduction of HAPLN1 expression” value (SOX9 target genes; [1]) of the same compound?
The value was 70%.

And the “reduction of XT-1 expression” value (SOX9 target genes; [1])?
Its value is 50%.

What about the “reduction of aggrecan expression” value (SOX9 target genes; [1]) of the same compound?
Its value is 80%.

And the “inhibition of SOX9 activity (luciferase assay)” value (SOX9; 100 μM)?
Its value is roughly 70%.

And the “luciferase reporter activity (SOX9 activity)” value (SOX9)?
The value was “significantly reduce luciferase production”.

What does the source list for CC(COc1ccccc1)N(CCCl)Cc1ccccc1 (stereo not drawn) [phenoxybenzamine]?
reduction of Sox9 activity as indicated by luciferase expression (SOX9): up to 80%; luciferase reporter activity (SOX9 activity) (SOX9): dose dependent inhibition of reporter activity at 20 and 50 uM
